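Cells were grown in 96-well plates and exposed to each compound for 48 hours at five concentrations; endpoints were interpolated linearly between bracketing concentrations, or set to the highest concentration if not reached. GI50 = concentration required for 50% inhibition of growth. TGI denotes the concentration required for complete inhibition of growth.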 Starred links: 1 amine or outer side, 2 acyl side, 3 side chain; linkers in the order of their positions; H or OH if unused. Non-standard residues stand in square brackets, D forms with d. Residues, ends and D or L forms follow the SMILES beside them. *: point of attachment. X14 = C/C=C/CC(C)C(O)[C@H](N[*:1])C(=O)[*:2]; Decanoyl = CCCCCCCCCC(=O)*; Leu(ol) = CC(C)C[C@H](N)CO; Iva = CC[C@](C)(N)C(=O)O; Aib = CC(C)(N)C(=O)O
How the values were obtained:
Assay in all cases: growth of human tumour cells (NCI), 48 h
HS 578T breast = test system: HS 578T breast
786-0 renal = test system: 786-0 renal
RPMI-8226 leukemia = test system: RPMI-8226 leukemia
EKVX NSCLC = test system: EKVX NSCLC
HOP-92 NSCLC = test system: HOP-92 NSCLC
SF-539 CNS = test system: SF-539 CNS
SK-MEL-2 melanoma = test system: SK-MEL-2 melanoma
M14 melanoma = test system: M14 melanoma
NCI/ADR-RES ovarian = test system: NCI/ADR-RES ovarian
SW-620 colon = test system: SW-620 colon
MALME-3M melanoma = test system: MALME-3M melanoma
OVCAR-8 ovarian = test system: OVCAR-8 ovarian
UO-31 renal = test system: UO-31 renal
ACHN renal = test system: ACHN renal
OVCAR-3 ovarian = test system: OVCAR-3 ovarian
DU-145 prostate = test system: DU-145 prostate
A549 NSCLC = test system: A549 NSCLC
PC-3 prostate = test system: PC-3 prostate
CAKI-1 renal = test system: CAKI-1 renal
MDA-MB-435 = test system: MDA-MB-435
NCI-H522 lung = test system: NCI-H522 lung
MDA-MB-231 breast = test system: MDA-MB-231 breast
SN12C renal = test system: SN12C renal
CCRF-CEM leukemia = test system: CCRF-CEM leukemia
SK-MEL-28 melanoma = test system: SK-MEL-28 melanoma
SK-OV-3 ovarian = test system: SK-OV-3 ovarian
MCF7 breast = test system: MCF7 breast
OVCAR-5 ovarian = test system: OVCAR-5 ovarian
SF-268 CNS = test system: SF-268 CNS
U251 CNS = test system: U251 CNS
SNB-19 CNS = test system: SNB-19 CNS
K-562 leukemia = test system: K-562 leukemia
NCI-H226 lung = test system: NCI-H226 lung
LOX IMVI melanoma = test system: LOX IMVI melanoma
A498 renal = test system: A498 renal
SR leukemia = test system: SR leukemia
UACC-62 melanoma = test system: UACC-62 melanoma
HCT-116 colon = test system: HCT-116 colon
NCI-H460 lung = test system: NCI-H460 lung
OVCAR-4 ovarian = test system: OVCAR-4 ovarian
HCC-2998 colon = test system: HCC-2998 colon
SK-MEL-5 melanoma = test system: SK-MEL-5 melanoma
RXF 393 renal = test system: RXF 393 renal
BT-549 breast = test system: BT-549 breast
UACC-257 melanoma = test system: UACC-257 melanoma
SF-295 CNS = test system: SF-295 CNS
TK-10 renal = test system: TK-10 renal
HL-60(TB) leukemia = test system: HL-60(TB) leukemia
HCT-15 colon = test system: HCT-15 colon
SNB-75 CNS = test system: SNB-75 CNS
COLO 205 colon = test system: COLO 205 colon
HT29 colon = test system: HT29 colon
KM12 colon = test system: KM12 colon
MOLT-4 leukemia = test system: MOLT-4 leukemia
IGROV1 ovarian = test system: IGROV1 ovarian

C/C=C/CC(C)C(O)[C@H](NC(=O)[C@@H]1CCCN1C(=O)C(C)(C)NC(=O)CCCCCCCCC)C(=O)N[C@@](C)(CC)C(=O)N[C@@H](CCC(N)=O)C(=O)N[C@H](CCC(N)=O)C(=O)NC(C)(C)C(=O)N[C@@](C)(CC)C(=O)N[C@@H](CCC(N)=O)C(=O)N[C@H](CC(C)C)C(=O)N[C@H](CO)CC(C)C (stereo partly drawn) (Decanoyl-[Aib]P[X14][Iva]Q[dQ][Aib][Iva]Q[dL][Leu(ol)])
GI50 (HS 578T breast): 297 nM
TGI (HS 578T breast): 1720 nM
GI50 (786-0 renal): 284 nM
TGI (786-0 renal): 1440 nM
GI50 (RPMI-8226 leukemia): 29.5 nM
TGI (RPMI-8226 leukemia): 140 nM
GI50 (EKVX NSCLC): 173 nM
TGI (EKVX NSCLC): 1430 nM
TGI (HOP-92 NSCLC): 83.6 nM
GI50 (SF-539 CNS): 338 nM
TGI (SF-539 CNS): 1310 nM
GI50 (SK-MEL-2 melanoma): 60.4 nM
TGI (SK-MEL-2 melanoma): 688 nM
GI50 (M14 melanoma): 61.5 nM
TGI (M14 melanoma): 1320 nM
GI50 (NCI/ADR-RES ovarian): 985 nM
TGI (NCI/ADR-RES ovarian): 2330 nM
GI50 (SW-620 colon): 89.2 nM
TGI (SW-620 colon): 1330 nM
GI50 (MALME-3M melanoma): 30.9 nM
TGI (MALME-3M melanoma): 643 nM
GI50 (OVCAR-8 ovarian): 199 nM
TGI (OVCAR-8 ovarian): 1330 nM
GI50 (UO-31 renal): 212 nM
TGI (UO-31 renal): 1110 nM
GI50 (ACHN renal): 87.7 nM
TGI (ACHN renal): 1130 nM
GI50 (OVCAR-3 ovarian): 41.7 nM
TGI (OVCAR-3 ovarian): 1310 nM
GI50 (DU-145 prostate): 318 nM
TGI (DU-145 prostate): 1530 nM
GI50 (A549 NSCLC): 95.6 nM
TGI (A549 NSCLC): 1160 nM
GI50 (PC-3 prostate): 52.7 nM
TGI (PC-3 prostate): 1050 nM
GI50 (CAKI-1 renal): 206 nM
TGI (CAKI-1 renal): 659 nM
GI50 (MDA-MB-435): 111 nM
TGI (MDA-MB-435): 1200 nM
GI50 (NCI-H522 lung): 55 nM
TGI (NCI-H522 lung): 720 nM
GI50 (MDA-MB-231 breast): 274 nM
TGI (MDA-MB-231 breast): 990 nM
GI50 (SN12C renal): 211 nM
TGI (SN12C renal): 1110 nM
GI50 (CCRF-CEM leukemia): 152 nM
TGI (CCRF-CEM leukemia): 1180 nM
GI50 (SK-MEL-28 melanoma): 62.7 nM
TGI (SK-MEL-28 melanoma): 2000 nM
GI50 (SK-OV-3 ovarian): 233 nM
TGI (SK-OV-3 ovarian): 873 nM
GI50 (MCF7 breast): 59.4 nM
TGI (MCF7 breast): 1160 nM
GI50 (OVCAR-5 ovarian): 208 nM
TGI (OVCAR-5 ovarian): 1290 nM
GI50 (SF-268 CNS): 281 nM
TGI (SF-268 CNS): 1360 nM
GI50 (U251 CNS): 54.8 nM
TGI (U251 CNS): 1200 nM
GI50 (SNB-19 CNS): 134 nM
TGI (SNB-19 CNS): 1350 nM
GI50 (K-562 leukemia): 41.8 nM
TGI (K-562 leukemia): 1090 nM
GI50 (NCI-H226 lung): 182 nM
TGI (NCI-H226 lung): 1480 nM
GI50 (LOX IMVI melanoma): 164 nM
TGI (LOX IMVI melanoma): 697 nM
GI50 (A498 renal): 242 nM
TGI (A498 renal): 721 nM
GI50 (SR leukemia): 253 nM
TGI (SR leukemia): 943 nM
GI50 (UACC-62 melanoma): 103 nM
TGI (UACC-62 melanoma): 1470 nM
GI50 (HCT-116 colon): 87 nM
TGI (HCT-116 colon): 1200 nM
GI50 (NCI-H460 lung): 94 nM
TGI (NCI-H460 lung): 1150 nM
GI50 (OVCAR-4 ovarian): 82.5 nM
TGI (OVCAR-4 ovarian): 1870 nM
GI50 (HCC-2998 colon): 107 nM
TGI (HCC-2998 colon): 1600 nM
GI50 (SK-MEL-5 melanoma): 40.7 nM
TGI (SK-MEL-5 melanoma): 200 nM
GI50 (RXF 393 renal): 259 nM
TGI (RXF 393 renal): 1260 nM
GI50 (BT-549 breast): 304 nM
TGI (BT-549 breast): 829 nM
GI50 (UACC-257 melanoma): 62.1 nM
TGI (UACC-257 melanoma): 758 nM
GI50 (SF-295 CNS): 48.8 nM
TGI (SF-295 CNS): 754 nM
GI50 (TK-10 renal): 67.5 nM
TGI (TK-10 renal): 1530 nM
GI50 (HL-60(TB) leukemia): 29.1 nM
TGI (HL-60(TB) leukemia): 114 nM
GI50 (HCT-15 colon): 297 nM
TGI (HCT-15 colon): 1270 nM
GI50 (SNB-75 CNS): 174 nM
TGI (SNB-75 CNS): 803 nM
GI50 (COLO 205 colon): 49 nM
TGI (COLO 205 colon): 187 nM
GI50 (HT29 colon): 97.4 nM
TGI (HT29 colon): 1350 nM
GI50 (KM12 colon): 75.2 nM
TGI (KM12 colon): 1170 nM
GI50 (MOLT-4 leukemia): 259 nM
TGI (MOLT-4 leukemia): 1140 nM
GI50 (IGROV1 ovarian): 406 nM
TGI (IGROV1 ovarian): 1750 nM
